Data reported in article PMC4807051, “Determinants of Cofactor Specificity for the Glucose-6-Phosphate Dehydrogenase from Escherichia coli: Simulation, Kinetics and Evolutionary Studies” (PLoS ONE, 2016).

Experiments:
[1] = target: T1, EcG6PDH; glucose-6-phosphate dehydrogenase from Escherichia coli (Escherichia coli, UniProt P0AC53, R50A); experiment: NAD(P)H formation at […] nm, Michaelis-Menten fit; assay type: biochemical; conditions: co-substrate NADP+ at 10 times its KM; 25°C
T1 construct: gene zwf; full length; N-terminal 6xHis tag cut by TEV protease (Gly-His left before Met1); plasmid pET-TEV-EcG6PDH from pETG6PDH

[2] = target: T2, EcG6PDH; glucose-6-phosphate dehydrogenase from Escherichia coli (Escherichia coli, UniProt P0AC53, K18A); experiment: NAD(P)H formation at […] nm, Michaelis-Menten fit; assay type: biochemical; conditions: co-substrate NADP+ at 10 times its KM; 25°C
T2 construct: gene zwf; full length; N-terminal 6xHis tag cut by TEV protease (Gly-His left before Met1); plasmid pET-TEV-EcG6PDH from pETG6PDH

O=P(O)(O)OC[C@H]1OC(O)[C@H](O)[C@@H](O)[C@@H]1O (some centres unmarked) [G6P]
apparent KM [1]: we determined the effect of the mutations on the apparent kinetic parameters for G6P
apparent KM [2]: we determined the effect of the mutations on the apparent kinetic parameters for G6P
